# Tested on: SK-MEL-5
# Test: Anticancer activity in Homo sapiens (human) SK-MEL-5 cells assessed as cell growth at 10^-5 M after 48 hr by SRB assay
# Assay type: functional
# Settings: SK-MEL-5, 48 h, read-out: Activity
compound,measurement,value
Cc1ccc(-c2cs/c(=N\NC(=O)c3ccc(O)cc3)n2-c2c(C)cccc2C)cc1,growth at 10 µM,5.18%
